Source: ChEMBL document CHEMBL1201862, “PubChem BioAssay data set” (2004)
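Method: 48-hour compound exposure of cells in 96-well plates, five concentrations, linear interpolation of endpoints. GI50 = concentration required for 50% inhibition of growth.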 Activity calls are given as the source filed them. Rule as the data show it: active = GI50 up to about 1.1 µM and inactive = higher.

Tests used:
Assay in all cases: inhibition of tumour cell growth, NCI panel, 48 h
SNB-75 = system: SNB-75
SF-539 = system: SF-539
HCC 2998 = system: HCC 2998
SN12C = system: SN12C
CAKI-1 = system: CAKI-1
UO-31 = system: UO-31
HCT-116 = system: HCT-116
NCI-H460 = system: NCI-H460
SW-620 = system: SW-620
HOP-62 = system: HOP-62
SNB-19 = system: SNB-19
SR = system: SR
SF-295 = system: SF-295
SK-MEL-5 = system: SK-MEL-5
HCT-15 = system: HCT-15
A498 = system: A498
ACHN = system: ACHN
MCF7 = system: MCF7

| Compound | GI50 (SNB-75) | GI50 (SF-539) | GI50 (HCC 2998) | GI50 (SN12C) | GI50 (CAKI-1) | GI50 (UO-31) | GI50 (HCT-116) | GI50 (NCI-H460) | GI50 (SW-620) | GI50 (HOP-62) | GI50 (SNB-19) | GI50 (SR) | GI50 (SF-295) | GI50 (SK-MEL-5) | GI50 (HCT-15) [µM] | GI50 (A498) | GI50 (ACHN) | GI50 (MCF7) |
| --- | --- | --- | --- | --- | --- | --- | --- | --- | --- | --- | --- | --- | --- | --- | --- | --- | --- | --- |
| CCN1CC2(C)CC[C@@H](OC)C34[C@@H]2[C@H](OC(C)=O)C2(OCO[C@@]25C[C@H](OC)C2C[C@]3(O)[C@@H]5[C@H]2O)[C@H]14 | > 100 µM (inactive) | > 100 µM (inactive) | > 100 µM (inactive) | > 100 µM (inactive) | > 100 µM (inactive) | > 100 µM (inactive) | > 100 µM (inactive) | > 100 µM (inactive) | > 100 µM (inactive) | 82.6 µM (inactive) | > 100 µM (inactive) | > 100 µM (inactive) | > 100 µM (inactive) | – | – | – | – | – |
| COC(=O)c1[nH]c(=S)[nH]c(=O)c1-c1ccc(Cl)cc1 | > 50 µM (inactive) | > 50 µM (inactive) | > 50 µM (inactive) | > 50 µM (inactive) | > 12.2 µM (inactive) | > 50 µM (inactive) | > 50 µM (inactive) | > 50 µM (inactive) | > 50 µM (inactive) | > 50 µM (inactive) | > 50 µM (inactive) | > 50 µM (inactive) | > 50 µM (inactive) | > 50 µM (inactive) | > 50 | > 50 µM (inactive) | > 50 µM (inactive) | – |
| CC(=O)Nc1ccc(/C=N\N2C(=O)c3ccccc3C2=O)cc1 | > 100 µM (inactive) | > 100 µM (inactive) | > 100 µM (inactive) | > 100 µM (inactive) | > 100 µM (inactive) | > 100 µM (inactive) | > 100 µM (inactive) | > 100 µM (inactive) | > 100 µM (inactive) | > 100 µM (inactive) | > 100 µM (inactive) | > 100 µM (inactive) | > 100 µM (inactive) | > 100 µM (inactive) | > 100 | > 100 µM (inactive) | > 100 µM (inactive) | – |
| O=C1Nc2ccc([N+](=O)[O-])cc2/C1=N/Nc1ccc([N+](=O)[O-])cc1 | 40.9 µM (inactive) | 16.1 µM (inactive) | – | – | 20.5 µM (inactive) | 26.5 µM (inactive) | – | 12.8 µM (inactive) | 12.5 µM (inactive) | 18.3 µM (inactive) | 17.6 µM (inactive) | 43.4 µM (inactive) | 11.8 µM (inactive) | 12.2 µM (inactive) | 21.4 | 59.3 µM (inactive) | 22.3 µM (inactive) | – |
| CC1(C)CC23C(=O)N(c4ccccc4)C(Nc4ccccc4)=NC2=CC(C#N)=C(C#N)C3O1 (stereo unspecified) | 48.8 µM (inactive) | 34.8 µM (inactive) | 67.1 µM (inactive) | 34.8 µM (inactive) | 23.2 µM (inactive) | 18.6 µM (inactive) | 89.5 µM (inactive) | 43.8 µM (inactive) | 37.7 µM (inactive) | 82 µM (inactive) | 89.9 µM (inactive) | – | 46.7 µM (inactive) | 28.1 µM (inactive) | 64.9 | 26.4 µM (inactive) | 28.8 µM (inactive) | – |
| Cc1c(NC(=S)NC(=O)c2ccc([N+](=O)[O-])cc2)c(=O)n(-c2ccccc2)n1C | > 100 µM (inactive) | > 100 µM (inactive) | > 100 µM (inactive) | > 100 µM (inactive) | > 100 µM (inactive) | > 100 µM (inactive) | > 100 µM (inactive) | > 100 µM (inactive) | > 100 µM (inactive) | > 100 µM (inactive) | > 100 µM (inactive) | > 100 µM (inactive) | > 100 µM (inactive) | > 100 µM (inactive) | > 100 | > 100 µM (inactive) | > 100 µM (inactive) | – |
| Cc1nnc2n1N=C(c1ccccc1)C(c1ccccc1)S2 (stereo unspecified) | 17.8 µM (inactive) | 31 µM (inactive) | 34.8 µM (inactive) | 59.6 µM (inactive) | 64.9 µM (inactive) | 51.3 µM (inactive) | 38.2 µM (inactive) | 34.6 µM (inactive) | 11.2 µM (inactive) | 72.3 µM (inactive) | 46.3 µM (inactive) | – | 62.4 µM (inactive) | 48.9 µM (inactive) | 26.2 | 64 µM (inactive) | 33.2 µM (inactive) | – |
| COc1ccccc1-n1c(NN)nc2ccc(Br)cc2c1=O | 34.1 µM (inactive) | 27.9 µM (inactive) | 41.7 µM (inactive) | 57.9 µM (inactive) | 48.1 µM (inactive) | 35.1 µM (inactive) | – | 42.8 µM (inactive) | 53 µM (inactive) | 28.8 µM (inactive) | 37 µM (inactive) | 24.9 µM (inactive) | 34.5 µM (inactive) | 19.3 µM (inactive) | 35.6 | – | 36.5 µM (inactive) | – |
| O=C(O)C1CCc2nnc(-c3ccccc3)n21 (stereo unspecified) | > 100 µM (inactive) | > 100 µM (inactive) | > 100 µM (inactive) | > 100 µM (inactive) | > 100 µM (inactive) | > 100 µM (inactive) | > 100 µM (inactive) | > 100 µM (inactive) | > 100 µM (inactive) | > 100 µM (inactive) | > 100 µM (inactive) | > 100 µM (inactive) | – | > 100 µM (inactive) | > 100 | > 100 µM (inactive) | > 100 µM (inactive) | – |
| CC1=NN(C(=O)Cc2ccccc2)C(=O)/C1=C/c1c(O)ccc2ccccc12 | 29.6 µM (inactive) | 29.2 µM (inactive) | > 100 µM (inactive) | 34.1 µM (inactive) | 92.5 µM (inactive) | 22.2 µM (inactive) | 49.1 µM (inactive) | 69 µM (inactive) | 39.4 µM (inactive) | > 100 µM (inactive) | 50.8 µM (inactive) | 45.7 µM (inactive) | 34.1 µM (inactive) | 96.6 µM (inactive) | 2.21 | – | 28.1 µM (inactive) | – |
| BrC1=CC=C2NCCCCCC/N=C3\C=CC(Br)=CC=C3NCCCCCC/N=C\2C=C1 | > 25.5 µM (inactive) | > 25.5 µM (inactive) | > 25.5 µM (inactive) | > 25.5 µM (inactive) | > 25.5 µM (inactive) | > 25.5 µM (inactive) | > 25.5 µM (inactive) | > 25.5 µM (inactive) | > 25.5 µM (inactive) | > 25.5 µM (inactive) | > 25.5 µM (inactive) | – | > 25.5 µM (inactive) | > 25.5 µM (inactive) | > 25.5 | > 25.5 µM (inactive) | > 25.5 µM (inactive) | – |
| C[C@]12CCc3nonc3C1CC[C@@H]1C2CC[C@]2(C)C(=O)/C(=N\O)CC12 (stereo partly specified) | 28.1 µM (inactive) | > 100 µM (inactive) | > 100 µM (inactive) | > 100 µM (inactive) | > 100 µM (inactive) | > 100 µM (inactive) | > 100 µM (inactive) | > 100 µM (inactive) | > 100 µM (inactive) | > 100 µM (inactive) | > 100 µM (inactive) | > 100 µM (inactive) | > 100 µM (inactive) | > 100 µM (inactive) | > 100 | > 100 µM (inactive) | > 100 µM (inactive) | – |
| CCc1cccc(CC)c1NC(=O)C1=C(C)NC(C)=C(C(=O)Nc2c(CC)cccc2CC)C1c1ccc([N+](=O)[O-])cc1 | 24.5 µM (inactive) | 16.2 µM (inactive) | 36.2 µM (inactive) | 46.5 µM (inactive) | 15.8 µM (inactive) | 23.2 µM (inactive) | 15.1 µM (inactive) | 17.5 µM (inactive) | 17.7 µM (inactive) | 57.5 µM (inactive) | 54.5 µM (inactive) | – | 15.5 µM (inactive) | 15.1 µM (inactive) | – | 19 µM (inactive) | 27.4 µM (inactive) | – |
| N#CC1=C(Cl)NC(Cl)=C(C#N)C1c1c(Cl)cccc1Cl | 34.4 µM (inactive) | 46 µM (inactive) | 24.1 µM (inactive) | 24.7 µM (inactive) | 55.6 µM (inactive) | 49.4 µM (inactive) | 18.7 µM (inactive) | 18.4 µM (inactive) | 14 µM (inactive) | 48.2 µM (inactive) | 27.9 µM (inactive) | 40.7 µM (inactive) | 41.7 µM (inactive) | 21.5 µM (inactive) | 16.2 | 94.6 µM (inactive) | 39.1 µM (inactive) | – |
| CN(C)/C=N\c1nncc2[nH]cnc12 | > 100 µM (inactive) | > 100 µM (inactive) | > 100 µM (inactive) | > 100 µM (inactive) | > 100 µM (inactive) | 98.6 µM (inactive) | 87.3 µM (inactive) | – | 82.6 µM (inactive) | 60.1 µM (inactive) | – | – | > 100 µM (inactive) | > 100 µM (inactive) | > 100 | > 100 µM (inactive) | > 100 µM (inactive) | > 100 µM (inactive) |
| CCCCOC(=O)C1C2CCC(O2)C1C(=O)OCCCC (stereo unspecified) | > 100 µM (inactive) | > 76.6 µM (inactive) | > 62.7 µM (inactive) | > 73.3 µM (inactive) | > 100 µM (inactive) | > 100 µM (inactive) | > 45.6 µM (inactive) | 4.17 µM (inactive) | – | > 100 µM (inactive) | > 100 µM (inactive) | – | > 100 µM (inactive) | > 100 µM (inactive) | > 65.2 | > 100 µM (inactive) | > 100 µM (inactive) | – |
| CC1=C(O)C(=O)C2C(=O)C1C(C)C2c1ccccc1 (stereo unspecified) | > 100 µM (inactive) | > 100 µM (inactive) | > 100 µM (inactive) | – | > 100 µM (inactive) | > 100 µM (inactive) | – | – | > 100 µM (inactive) | > 100 µM (inactive) | > 100 µM (inactive) | > 100 µM (inactive) | > 100 µM (inactive) | > 100 µM (inactive) | > 100 | > 100 µM (inactive) | > 100 µM (inactive) | – |
